This passage reports IC50 results from patent publication US10071957B2, “N-substituted benzamides and methods of use thereof” (GENENTECH, INC., priority 2012, dated 2018).

Assay [1] concerns the target T1, hNaV1.7 (Homo sapiens (Human), UniProt Q15858). Put plainly: Competitive binding of tritiated compound to membranes from cells expressing hNav1.7 and the β1 subunit. The note with it: 100 pM [3H]compound, 18 h, room temperature; read-out: NaV1.7 395 Membrane Binding IC50. As for the experimental part: Tritiated compound binding to membranes isolated from cells that heterologously express hNav1.7 and the β1 subunit
Preparation of membranes containing recombinantly expressed sodium channels: Frozen recombinant cell pellets were thawed on ice and diluted to 4 times the cell pellet weight with ice cold 50 mM Tris HCl, pH 7.4 buffer. The cell suspensions were homogenized on ice using a motorized glass dounce homogeniser. Homogenates were further diluted 8.4 times with ice cold 50 mM Tris HCl, pH 7.4 buffer and then centrifuged at 200×g at 4° C. for 15 min. The supernatants were collected and centrifuged at 10000×g at 4° C. for 50 min. The pellets were then re-suspended in 100 mM NaCl, 20 mM Tris HCl, pH 7.4 buffer containing 1% v/v protease inhibitors (Calbiochem) and re-homogenized on ice. The homogenized membranes were then processed through a syringe equipped with a 26 gauge needle. Protein concentrations were determined by Bradford Assay and the membranes were stored at −80° C.
Radioligand Binding Studies: Saturation experiments. A representative compound of formula (I) was tritiated. Three tritiums were incorporated in place of methyl hydrogens to generate [^3H]compound. Binding of this radioligand was performed in 5 mL borosilicate glass test tubes at room temperature. Binding was initiated by adding membranes to increasing concentrations of [^3H]compound in 100 mM NaCl, 20 mM Tris HCl, pH 7.4 buffer containing 0.01% w/v bovine serum albumin (BSA) for 18 h. Non-specific binding was determined in the presence of 1 μM unlabelled compound. After 18 h, the reactants were filtered through GF/C glass fiber filters presoaked in 0.5% w/v polyethylene imine. Filters were washed with 15 mL ice cold 100 mM NaCl, 20 mM Tris HCl, pH 7.4 buffer containing 0.25% BSA to separate bound from free ligand. [^3H]compound bound to filters was quantified by liquid scintillation counting.
Competitive binding experiments. Binding reactions were performed in 96-well polypropylene plates at room temperature for 18 h. In 360 μL, membranes were incubated with 100 pM [^3H]compound and increasing concentrations of Test Compound. Non-specific binding was defined in the presence of 1 μM unlabelled compound. Reactions were transferred and filtered through 96-well glass fiber/C filter plates presoaked with 0.5% polyethylene imine. The filtered reactions were washed 5 times with 200 μL ice cold buffer containing 0.25% BSA. Bound radioactivity was determined by liquid scintillation counting.
Data Analysis: For saturation experiments, non-specific binding was subtracted from total binding to provide specific binding and these values were recalculated in terms of pmol ligand bound per mg protein. Saturation curves were constructed and dissociation constants were calculated using the single site ligand binding model: Beq=(Bmax*X)/(X+Kd), where Beq is the amount of ligand bound at equilibrium, Bmax is the maximum receptor density, Kd is the dissociation constant for the ligand, and X is the free ligand concentration. For competition studies percent inhibition was determined and IC50 values were calculated using a 4 parameter logistic model (% inhibition=(A+((B−A)/(1+((x/C)^D)))) using XLfit, where A and B are the maximal and minimum inhibition respectively, C is the IC50 concentration and D is the (Hill) slope.

Assay [2] deals with T1, hNaV1.7. In words: Patch voltage clamp electrophysiology, inactivated state block of NaV1.7 in HEK-293 cells. In kind it is cell-based. Conditions: HEK cells with β1 subunit, read-out: hNaV 1.7 IC50. As for the experimental part: Patch voltage clamp electrophysiology allows for the direct measurement and quantification of block of voltage-gated sodium channels (NaV's), and allows the determination of the time- and voltage-dependence of block which has been interpreted as differential binding to the resting, open, and inactivated states of the sodium channel (Hille, B., Journal of General Physiology (1977), 69: 497-515).
The following patch voltage clamp electrophysiology studies were performed on representative compounds of the invention using human embryonic kidney cells (HEK), permanently transfected with an expression vector containing the full-length cDNA coding for the desired human sodium channel α-subunit, grown in culture media containing 10% FBS, 1% PSG, and 0.5 mg/mL G418 at 37° C. with 5% CO2. […] NaV1.7 and NaV1.5 cDNAs (NM_002977 and AC137587; SCN5A, respectively) were stably expressed in HEK-293 cells. The β1 subunit was coexpressed in both the NaV1.7 and NaV1.5 cell lines.
Sodium currents were measured using the patch clamp technique in the whole-cell configuration using either a PatchXpress automated voltage clamp or manually using an Axopatch 200B (Axon Instruments) or Model 2400 (A-M systems) amplifier. The manual voltage clamp protocol was as follows:
The pipette was filled with a solution comprised of: 5 mM NaCl, 10 mM CsCl, 120 mM CsF, 0.1 mM CaCl2, 2 mM MgCl2, 10 mM HEPES, 10 mM EGTA; and adjusted to pH 7.2 with CsOH. The external solution had the following composition: 140 mM NaCl, 5 mM KCl, 2 mM CaCl2, 1 mM MgCl2, 10 mM HEPES; and adjusted to pH 7.4 with NaOH. In some studies, the external sodium was reduced by equimolar replacement with choline. Osmolarity in the CsF internal and NaCl external solutions was adjusted to 300 mOsm/kg and 310 mOsm/kg with glucose, respectively. All recordings were performed at ambient temperature in a bath chamber with a volume of 150 μL. Control sodium currents were measured in 0.5% DMSO. Controls and representative compounds of the invention were applied to the recording chamber through a 4-pinch or 8-pinch valve bath perfusion system manufactured by ALA Scientific Instruments.
Currents were recorded at 40 kHz sampling frequency, filtered at […], and stored using a Digidata-1322A analogue/digital interface with the pClamp software (Axon Instruments). Series resistance compensation was applied (60-80%). […] All statistics in this study are given as mean±SD.
The membrane potential was maintained at a voltage where inactivation of the channel is complete (which was −60 mV for both NaV1.7 and NaV1.5). […] The percent decrease in sodium current following wash-on of compound was taken as the percent block of sodium channels.

T1 sequence (Q15858 whole entry, looked up): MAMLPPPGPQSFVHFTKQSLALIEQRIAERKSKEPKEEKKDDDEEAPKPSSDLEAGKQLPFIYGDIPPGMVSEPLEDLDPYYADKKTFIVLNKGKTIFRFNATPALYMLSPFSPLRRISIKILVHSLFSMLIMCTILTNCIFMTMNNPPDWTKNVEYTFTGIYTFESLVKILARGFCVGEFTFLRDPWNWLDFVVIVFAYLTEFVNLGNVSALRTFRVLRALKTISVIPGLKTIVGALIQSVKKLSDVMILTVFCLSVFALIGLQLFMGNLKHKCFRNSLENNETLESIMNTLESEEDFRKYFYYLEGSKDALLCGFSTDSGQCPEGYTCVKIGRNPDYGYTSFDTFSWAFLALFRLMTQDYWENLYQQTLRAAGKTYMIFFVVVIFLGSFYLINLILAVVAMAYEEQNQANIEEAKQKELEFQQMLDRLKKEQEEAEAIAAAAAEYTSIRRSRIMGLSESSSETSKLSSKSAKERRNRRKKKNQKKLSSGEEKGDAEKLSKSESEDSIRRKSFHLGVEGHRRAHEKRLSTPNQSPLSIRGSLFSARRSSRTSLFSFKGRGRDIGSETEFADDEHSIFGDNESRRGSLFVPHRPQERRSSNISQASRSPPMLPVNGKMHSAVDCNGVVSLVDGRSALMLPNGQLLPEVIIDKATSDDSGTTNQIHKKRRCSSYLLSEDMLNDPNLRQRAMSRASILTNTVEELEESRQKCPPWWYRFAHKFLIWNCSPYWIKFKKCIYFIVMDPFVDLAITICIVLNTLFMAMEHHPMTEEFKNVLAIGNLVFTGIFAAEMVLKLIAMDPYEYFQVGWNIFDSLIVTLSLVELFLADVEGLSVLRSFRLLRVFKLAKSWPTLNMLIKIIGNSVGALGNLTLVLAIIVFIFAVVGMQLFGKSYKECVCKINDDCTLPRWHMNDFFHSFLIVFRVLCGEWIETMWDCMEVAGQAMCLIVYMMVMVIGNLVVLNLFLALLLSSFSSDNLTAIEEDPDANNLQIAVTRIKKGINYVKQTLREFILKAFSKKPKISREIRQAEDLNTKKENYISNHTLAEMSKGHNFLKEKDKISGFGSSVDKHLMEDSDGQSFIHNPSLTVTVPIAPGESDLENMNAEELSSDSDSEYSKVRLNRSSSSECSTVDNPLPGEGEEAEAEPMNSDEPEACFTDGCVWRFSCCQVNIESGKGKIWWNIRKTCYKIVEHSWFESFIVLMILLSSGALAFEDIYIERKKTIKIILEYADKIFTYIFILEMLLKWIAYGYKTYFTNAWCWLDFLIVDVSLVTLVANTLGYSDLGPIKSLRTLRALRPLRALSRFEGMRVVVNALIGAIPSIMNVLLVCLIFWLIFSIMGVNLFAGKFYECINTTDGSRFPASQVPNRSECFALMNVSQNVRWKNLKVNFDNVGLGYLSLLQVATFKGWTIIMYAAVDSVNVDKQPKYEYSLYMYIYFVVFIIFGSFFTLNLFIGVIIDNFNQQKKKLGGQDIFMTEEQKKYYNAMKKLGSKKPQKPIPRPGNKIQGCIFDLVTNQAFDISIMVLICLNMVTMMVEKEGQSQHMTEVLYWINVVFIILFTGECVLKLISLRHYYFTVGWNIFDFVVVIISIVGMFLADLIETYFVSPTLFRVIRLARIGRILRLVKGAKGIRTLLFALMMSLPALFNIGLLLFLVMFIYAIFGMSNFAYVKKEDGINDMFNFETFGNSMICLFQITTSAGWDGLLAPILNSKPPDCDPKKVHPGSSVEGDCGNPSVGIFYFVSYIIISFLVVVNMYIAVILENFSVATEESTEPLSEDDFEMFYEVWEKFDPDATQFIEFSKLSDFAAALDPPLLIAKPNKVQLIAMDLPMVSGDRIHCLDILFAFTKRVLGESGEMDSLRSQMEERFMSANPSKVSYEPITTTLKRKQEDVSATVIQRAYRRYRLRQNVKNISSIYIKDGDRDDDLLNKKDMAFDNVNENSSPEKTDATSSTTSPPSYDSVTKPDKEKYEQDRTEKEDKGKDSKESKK
T1 sequence (Q07699 whole entry partner, looked up): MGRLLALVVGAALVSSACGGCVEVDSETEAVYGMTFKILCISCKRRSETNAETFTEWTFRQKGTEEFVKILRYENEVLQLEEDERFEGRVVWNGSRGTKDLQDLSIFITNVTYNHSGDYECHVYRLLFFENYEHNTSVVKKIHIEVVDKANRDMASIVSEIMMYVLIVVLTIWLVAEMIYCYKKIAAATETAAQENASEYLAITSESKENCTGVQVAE

By IC50 is commonly meant the concentration that gives 50% inhibition. Regarding `CN(C)S(=O)(=O)NC(=O)c1cc(Cl)c(Oc2ccc(Cl)c(C(F)(F)F)c2)cc1F` [Preparation 1, 5-chloro-4-(4-chloro-3-(trifluoromethyl)phenoxy)-N-(N,N-dimethylsulfamoyl)-2-fluorobenzamide], the IC50 in assay [1] was found to be 253 nM; in assay [2], 53 nM.

`CC(C)COc1ncc(Oc2cc(F)c(C(=O)NS(N)(=O)=O)cc2Cl)cc1Cl` [Preparation 4, 5-chloro-4-((5-chloro-6-isobutoxypyridin-3-yl)oxy)-2-fluoro-N-sulfamoylbenzamide]: the IC50 was determined as 70.8 nM in assay [1] and 9 nM in assay [2].

Consider `CN(C)S(=O)(=O)NC(=O)c1cc(Cl)c(COc2ccc(Cl)c(Cl)c2)cc1F` [Preparation 5, 5-chloro-4-((3,4-dichlorophenoxy)methyl)-N-(N,N-dimethylsulfamoyl)-2-fluorobenzamide], for which the values for the IC50 in assay [1] and in assay [2] were 174 nM and 19 nM, respectively.

`NS(=O)(=O)NC(=O)c1cc(Cl)c(Oc2ccc(Cl)c(C(F)(F)F)c2)cc1F` [Preparation 7, 5-chloro-4-(4-chloro-3-(trifluoromethyl)phenoxy)-2-fluoro-N-sulfamoyl-benzamide]: the results for the IC50 in assay [1] and in assay [2] were 1130 nM and 190 nM, respectively.

For the compound `CNS(=O)(=O)NC(=O)c1cc(Cl)c(Oc2ccc(Cl)c(C(F)(F)F)c2)cc1F` [Preparation 8, 5-chloro-4-(4-chloro-3-(trifluoromethyl)phenoxy)-2-fluoro-N-(N-methyl-sulfamoyl)benzamide], the IC50 in assay [1] was 109 nM; in assay [2], 22 nM.

Take `NS(=O)(=O)NC(=O)c1cc(Cl)c(Oc2ccc(OC(F)(F)F)c(Cl)c2)cc1F` [Preparation 10, 5-chloro-4-(3-chloro-4-(trifluoromethoxy)phenoxy)-2-fluoro-N-sulfamoyl-benzamide]: the IC50 in assay [1] stood at 2000 nM; in assay [2] it was 226 nM.

Turning to `CNS(=O)(=O)NC(=O)c1cc(Cl)c(Oc2ccc(OC(F)(F)F)c(Cl)c2)cc1F` [Preparation 11, 5-chloro-4-(3-chloro-4-(trifluoromethoxy)phenoxy)-2-fluoro-N-(N-methyl-sulfamoyl)benzamide], the IC50 in assay [1] turned out to be 145 nM; in assay [2], 15 nM.

`CN(C)S(=O)(=O)NC(=O)c1cc(Cl)c(Oc2ccc(OC(F)(F)F)c(Cl)c2)cc1F` [Preparation 12, 5-chloro-4-(3-chloro-4-(trifluoromethoxy)phenoxy)-N-(N,N-dimethylsulfamoyl)-2-fluorobenzamide]: the IC50 in assay [1] amounted to 218 nM; in assay [2], 41 nM.

Turning to `CC(C)COc1ncc(Oc2cc(F)c(C(=O)NS(=O)(=O)N3CCCC3)cc2Cl)cc1Cl` [Preparation 14, 5-chloro-4-((5-chloro-6-isobutoxypyridin-3-yl)oxy)-2-fluoro-N-(pyrrolidin-1-ylsulfonyl)benzamide], the IC50 was 30.1 nM in assay [1] and 44 nM in assay [2].

`CC(C)COc1ncc(Oc2cc(F)c(C(=O)NS(=O)(=O)N3CCCCC3)cc2Cl)cc1Cl` [Preparation 15, 5-chloro-4-((5-chloro-6-isobutoxypyridin-3-yl)oxy)-2-fluoro-N-(piperidin-1-ylsulfonyl)benzamide]: the IC50 in assay [1] was 58.4 nM; in assay [2], 64 nM.

Consider `CC(C)COc1ncc(Oc2cc(F)c(C(=O)NS(=O)(=O)N3CCCCCC3)cc2Cl)cc1Cl` [Preparation 16, N-(azepan-1-ylsulfonyl)-5-chloro-4-((5-chloro-6-isobutoxypyridin-3-yl)oxy)-2-fluorobenzamide], for which the IC50 in assay [1] turned out to be 542 nM; in assay [2], 73 nM.

Turning to `CC(C)COc1ncc(Oc2cc(F)c(C(=O)NS(=O)(=O)N(C)C(C)C)cc2Cl)cc1Cl` [Preparation 17, 5-chloro-4-((5-chloro-6-isobutoxypyridin-3-yl)oxy)-2-fluoro-N-(N-isopropyl-N-methylsulfamoyl) benzamide], the values for the IC50 in assay [1] and in assay [2] were 123 nM and 125 nM, respectively.

In the case of `CC(C)COc1ncc(Oc2cc(F)c(C(=O)NS(=O)(=O)Nc3ccc(C#N)cc3)cc2Cl)cc1Cl` [Preparation 21, 5-chloro-4-((5-chloro-6-isobutoxypyridin-3-yl)oxy)-N-(N-(4-cyanophenyl)sulfamoyl)-2-fluoro-benzamide], the values for the IC50 in assay [1] and in assay [2] were 2940 nM and 828 nM, respectively.

For `CN(C)S(=O)(=O)NC(=O)c1cc(Cl)c(OCc2ccc(Cl)c(Cl)c2)cc1F` [Preparation 23, 5-chloro-4-((3,4-dichlorobenzyl)oxy)-N-(N,N-dimethyl-sulfamoyl)-2-fluoro-benzamide], the IC50 was 1250 nM in assay [1] and 271 nM in assay [2].

Consider `CC(C)COc1ncc(Oc2cc(F)c(C(=O)NS(=O)(=O)c3cn(C)cn3)cc2Cl)cc1Cl` [Preparation 24, 5-chloro-4-((5-chloro-6-isobutoxypyridin-3-yl)oxy)-2-fluoro-N-((1-methyl-1H-imidazol-4-yl)sulfonyl)benzamide], for which the IC50 in assay [1] amounted to 578 nM; in assay [2], 34 nM.

On to `CC(C)COc1ncc(Oc2cc(F)c(C(=O)NS(=O)(=O)N3CCc4ccccc43)cc2Cl)cc1Cl` [Preparation 25, 5-chloro-4-((5-chloro-6-isobutoxypyridin-3-yl)oxy)-2-fluoro-N-(indolin-1-yl-sulfonyl)benzamide], for which the IC50 in assay [1] worked out at 388 nM; in assay [2] it was 190 nM.

As for `CC(C)COc1ncc(Oc2cc(F)c(C(=O)NS(=O)(=O)c3c[nH]cn3)cc2Cl)cc1Cl` [Preparation 26, N-((1H-imidazol-4-yl)sulfonyl)-5-chloro-4-((5-chloro-6-isobutoxypyridin-3-yl)oxy)-2-fluorobenzamide], the IC50 came to 77.3 nM in assay [1] and 9 nM in assay [2].

Turning to `CC(C)COc1ncc(Oc2cc(F)c(C(=O)NS(=O)(=O)c3cccnc3)cc2Cl)cc1Cl` [Preparation 28, 5-chloro-4-((5-chloro-6-isobutoxypyridin-3-yl)oxy)-2-fluoro-N-(pyridin-3-yl-sulfonyl)benzamide], the figures for the IC50 in assay [1] and in assay [2] were 703 nM and 57 nM, respectively.
